pIC50: −log10 of the molar value.
Key:
Type IV PDE = assay: PDE IV inhibitory activity (isozyme partially purified from rat neutrophils, 3H-cAMP substrate); assay type: biochemical; settings: rat neutrophil PDE IV, 30° C., 30 minutes, read-out: PDE IV inhibiting action IC50
Method: Type I, III, IV, and V PDE isozymes were prepared to study the PDE inhibitory activities of and selectivities with the compound of the invention [Trends Pharmacol Sci., 12, 19-27 (1991)]. Type I PDE was purchased from Sigma Corp. Type III, IV, and V PDE isozymes were partially purified from platelets (Type III and V) or neutrophils (Type IV) collected from rats. Each enzyme source was homogenized in a buffer (pH 6.5) containing 20 mM bisTris, 2 mM EDTA (i.e., ethlenediamine tetraacetate), 2-mercaptoethanol, 0.001 mM pepstatin and 0.01 mM leupeptin and was centrifuged at 30000×G for 30 minutes to obtain a supernatant, which was applied to an ion exchange column (Q-sepharose first flow, Pharmacia Corp.) and was eluted with 0 to 1M sodium acetate. Partially purified isozymes were identified by observing the inhibitory effects of conventional inhibitors.
Each PDE isozyme and the test compound dissolved in DMSO (i.e., dimethylsulfoxide) were added to 50 mM Tris--HCI buffer containing 5 mM magnesium chloride. ^3 H-cAMP (for type III and IV PDE) or ^3 H-cGMP (for type I and V PDE) were added as substrates and were reacted at 30° C. for 30 minutes. The reaction was terminated by placing the test tube in boiling water of 100° C. for 5 minutes. The nucleotides formed by PDE were broken down to ^3 H-adenosine or ^3 H-guanosine by 5'-nucleotidase. The substrate and reaction product were separated through an ion-exchange column (i.e., QAE sephadex, Pharmacia Corp.)
The eluted ^3 -H-nucleoside was measured for its radioactivity by a liquid scintillation counter. The inhibitory activities of the compound of the present invention are shown by the IC50 value (M). Further, the inhibitory activities of the test samples against type I, III, and V PDE are 1/10 or less than that against Type IV PDE.

[1] = tested on: TPA induced ear edema in mouse; assay: TPA induced mouse ear edema assay; assay type: in vivo, mouse (male ICR); settings: 0.1 mg applied to right ear immediately after TPA; 6 hour
Method: Male ICR mice, 5 week old, were divided into groups of seven to eight. 2 μg of TPA (phorbor 12-ministate; Sigma Co.) in 20 μl acetone was applied to the inner and outer surface of right ear of each mouse to cause a reaction. 0.1 mg of compound was dissolved in 20 μl of a tetrahydrofuran-methanol mixture (mixture ratio 1:1) and the solution (20 μl) applied to the right ear immediately after TPA treatment. After 6 hour, the animals were sacrificed and right ear was punched out (.phi. […]) and weighed. The effect of comppund.was calculated as % inhibition as follows: [formula]

pIC50 (Type IV PDE) | SMILES | % Inhibition of ear edema [1] [%]
6.14 | COc1ccc(N(Cc2ccc3ccccc3c2)C2=CC(=O)CC2)cc1OC1Cc2ccccc2C1 [Compound No. 79, 3-[3-(2-indanyloxy)-4-methoxy-N-(2-naphthylmethyl)anilino]-2-cyclopenten-1-one] | 89.0
6.00 | COc1ccc(NC2=C(C)C(=O)CC2)cc1OCC1CC1 [Compound No. 16, 3-(3-cyclopropylmethoxy-4-methoxyanilino)-2-methyl-2-cyclogenten-1-one] | 72.1
5.42 | COc1ccc(N(Cc2ccc3ccccc3c2)C2=CC(=O)CCC2)cc1OC1Cc2ccccc2C1 [Compound No. 67, 3-[3-(2-indanyloxy)-4-methoxy-N-(2-naphthylmethyl)anilino]-2-cyclohexen-1-one] | 60.8
4.36 | COc1ccc(N(C2=CC(=O)CC2)C2CCCC2)cc1OC1CCCC1 [Compound No. 60, 3-(N-cyclopentyl-3-cyclopentyloxy-4-methoxyanilino)-2-cyclopenten-1-one] | 78.5
5.37 | COc1ccc(N(Cc2ccncc2)C2=CC(=O)CC2)cc1OC1CCCC1 [Compound No. 28, 3-[3-cyclopentyloxy-4-methoxy-N-(4-pyridylmethyl)anilino]-2-cyclopenten-1-one] | 71.5
5.13 | COc1ccc(NC2=CC(=O)CC2)cc1OC1CCCCC1 [Compound No. 13, 3-(3-cyclohexyloxy-4-methoxyanilino)-2-cyclopenten-1-one] | 51.8
7.09 | COc1ccc(NC2=C(C)C(=O)CCC2)cc1OC1Cc2ccccc2C1 [Compound No. 48, 3-[3-(2-indanyloxy)-4-methoxyanilino]-2-methyl-2-cyclohexen-1-one] | 53.8
6.00 | COc1ccc(N(Cc2ccccc2)C2=CC(=O)CC2)cc1O[C@@H]1C[C@H]2CC[C@@H]1C2 (racemic) [Compound No. 81, 3-[N-benzyl-3-[(1RS,2RS,4SR)-bicyclo[2.2. 1]hept-2-yloxy]4-methoxyanilino]-2-cyclopenten-1-one] | 82.7
6.21 | COc1ccc(NC2=C(C)C(=O)CC2)cc1OCC1(c2ccccc2)CC1 [Compound No. 50, 3-[4-methoxy-3-[(1-phenylcyclopropyl)methoxy]anilino]-2-methyl-2-cyclopenten-1-one] | 62.6
6.28 | COc1ccc(N(Cc2ccc3ccccc3n2)C2=CC(=O)CC2)cc1OC1CCCC1 [Compound No. 58, 3-[3-cyclopentyloxy-4-methoxy-N-(2-quinolylemethyl)anilino]-2-cyclopenten-1-one] | 58.7
5.26 | COc1ccc(N(Cc2ccccc2)C2=CC(=O)CC2)cc1OC1CCCCC1 [Compound No. 56, 3-(N-benzyl-3-cyclohexyloxy-4-methoxyanilino)-2-cyclopenten-1-one] | 86.1
6.92 | COc1ccc(N(Cc2ccc3ccccc3n2)C2=CC(=O)CC2)cc1OC1Cc2ccccc2C1 [Compound No. 80, 3-[3-(2-indanyloxy)-4-methoxy-N-(2-quinolylmethyl)anilino]-2-cyclopenten-1-one] | 64.4
6.31 | COc1ccc(N(Cc2ccccn2)C2=CC(=O)CCC2)cc1OC1Cc2ccccc2C1 [Compound No. 68, 3-[3-(2-indanyloxy)-4-methoxy-N-(2-pyridylmethyl)anilino]-2-cyclohexen-1-one] | 52.0
5.72 | COc1ccc(N(Cc2ccc3ccccc3c2)C2=CC(=O)CC2)cc1OC1CCCCC1 [Compound No. 57, 3-[3-cyclohexyloxy-4-methoxy-N-(2-naphthylmethyl)anilino]-2-cyclopenten-1-one] | 89.7
5.89 | COc1ccc(N(Cc2ccncc2)C2=CC(=O)CC2)cc1OC1Cc2ccccc2C1 [Compound No. 78, 3-[3-(2-indanyloxy)-4-methoxy-N-(4-pyridylmethyl)anilino]-2-cyclopenten-1-one] | 82.2
5.70 | COc1ccc(NC2=C(C)C(=O)CCC2)cc1OC1CCCCC1 [Compound No. 55, 3-(3-cyclohexyloxy-4-methoxyanilino)-2-methyl-2-cyclohexen-1-one] | 70.8
5.74 | COc1ccc(NC2=CC(=O)CCC2)cc1OC1Cc2ccccc2C1 [Compound No. 19, 3-[3-(2-indanyloxy)-4-methoxyanilino]-2-cyclohexen-1-one] | 76.3
5.28 | COc1ccc(N(Cc2cccnc2)C2=CC(=O)CC2)cc1OC1CCCC1 [Compound No. 63, 3-[3-cyclopentyloxy-4-methoxy-N-(3-pyridylmethyl)anilino]2-cyclopenten-1-one] | 75.4
6.15 | COc1ccc(NC2=C(C)C(=O)CC2)cc1OCCc1ccccc1 [Compound No. 12, 3-(4-methoxy-3-phenethyloxyanilino)-2-methyl-2-cyclopenten-1-one] | 52.5
5.44 | COc1ccc(N(Cc2ccncc2)C2=CC(=O)CCC2)cc1O[C@@H]1C[C@H]2CC[C@@H]1C2 (racemic) [Compound No. 85, 3-[3-[(1RS,2RS,4SR)-bicyclo[2.2. 1]hept-2-yloxy]4-methoxy-N-(4-pyridylmethyl)anilino]-2-cyclohexen-1-one] | 70.3
6.55 | COc1ccc(NC2=C(Br)C(=O)CC2)cc1OC1CCCC1 [Compound No. 7, 2-bromo-3-(3-cyclopentyloxy-4-methoxyanilino)-2-cyclopenten-1-one] | 55.8
6.66 | COc1ccc(NC2=C(C)C(=O)CCC2)cc1OCCC1Cc2ccccc2C1 [Compound No. 53, 3-[3-[2-(2-indanyl)ethoxy]-4-methoxyanilino]-2-methyl-2-cyclohexen-1-one] | 55.9
5.49 | COc1ccc(N(Cc2ccncc2)C2=C(C)C(=O)CC2)cc1OC1Cc2ccccc2C1 [Compound No. 73, 3-[3-(2-indanyloxy)-4-methoxy-N-(4-pyridylmethyl)anilino]-2-methyl-2-cyclopenten-1-one] | 54.3
6.54 | COc1ccc(NC2=C(C)C(=O)CC2)cc1OCCC1Cc2ccccc2C1 [Compound No. 35, 3-[3-[2-(2-indanyl)ethoxy]-4-methoxyanilino]-2-methyl-2-cyclopenten-1-one] | 52.5
6.24 | COc1ccc(N(Cc2ccccc2)C2=CC(=O)CCC2)cc1OC1Cc2ccccc2C1 [Compound No. 66, 3-[N-benzyl-3-(2-indanyloxy)-4-methoxyanilino]-2-cyclohexen-1-one] | 72.8
5.80 | COc1ccc(NC2=CC(=O)CCC2)cc1O[C@@H]1C[C@H]2CC[C@@H]1C2 (relative stereo) [Compound No. 83, 3-[3-[rel(1R,2R,4S)-bicyclo[2.2. 1]hept-2-yloxy]-4-methoxyanilino]-2-cyclohexen-1-one] | 70.5
5.49 | COc1ccc(N(Cc2ccccn2)C2=CC(=O)CC2)cc1OC1CCCC1 [Compound No. 61, 3-[3-cyclopentyloxy-4-methoxy-N-(2-pyridylmethyl)anilino]-2-cyclopenten-1-one] | 66.2
5.72 | COc1ccc(N(C)C2=CC(=O)CCC2)cc1OC1CCCC1 [Compound No. 27, 3-(3-cyclopentyloxy-4-methoxy-N-methylanilino)-2-cyclohexen-1-one] | 86.4
6.89 | COc1ccc(N(C)C2=CC(=O)CC2)cc1OC1Cc2ccccc2C1 [Compound No. 76] | 52.7
5.80 | COc1ccc(N(C)C2=C(C)C(=O)CC2)cc1O[C@@H]1C[C@H]2CC[C@@H]1C2 (racemic) [Compound No. 47, 3-[3-[(1RS,2RS,4SR)-bicyclo[2.2. 1]hept-2-yloxy]4-methoxy-N-methylanilino]-2-methyl-2-cyclopenten-1-one] | 59.9

SMILES | pIC50 (Type IV PDE) | % Inhibition of ear edema [1] [%]
CCCCOc1cc(NC2=CC(=O)CC2)ccc1OC [Compound No. 17, 3-(3-butoxy-4-methoxyanilino)-2-cyclopenten-1-one] | 4.85 | 57.1
